# In ChEMBL document CHEMBL1143071, “Sodium pancratistatin 3,4-o-cyclic phosphate, a water-soluble synthetic derivative of pancratistatin, is highly effective in a human colon tumor model” (J Nat Prod, 2008):
# The source made the active and inactive calls. The rule behind the calls is not given here.
# How the values were obtained:
# HUVEC [1] = test: (§1) Disruption of normal microtubule structure in HUVEC cells at 250 uM after 3 hrs; type: functional, cell-based; conditions: Homo sapiens
# DLD-1 [2] = test: Antitumor activity in human DLD1 cell xenografted CD1 immunodeficient nude mouse at 100 mg/kg, iv assessed as mean tumor doubling time; type: functional
# DLD-1 [3] = test: Antitumor activity in human DLD1 cells xenografted CD1 immunodeficient nude mouse at 100 mg/kg after 24 hrs assessed as increase in tumor necrosis; type: functional
# DLD-1 [4] = test: Reduction in mitochondrial membrane potential in human DLD1 cells at 250 uM after 4 hrs assessed as decrease in fluorescence of mitoTracker green FM; type: functional, cell-based
# DLD-1 [5] = test: Reduction in mitochondrial membrane potential in human DLD1 cells at 250 uM after 7 hrs assessed as decrease in fluorescence of mitoTracker green FM; type: functional, cell-based
# DLD-1 [6] = test: Reduction in mitochondrial membrane potential in human DLD1 cells at 250 uM after 24 hrs assessed as decrease in fluorescence of mitoTracker green FM; type: functional, cell-based
# DLD-1 [7] = test: Antitumor activity in human DLD1 cell xenografted CD1 immunodeficient nude mouse at 100 mg/kg, iv assessed as weight loss; type: functional
# HUVEC [8] = test: Disruption of normal microtubule structure in HUVEC cells at 250 uM after 1 hr; type: functional, cell-based; conditions: Homo sapiens
# DLD-1 [9] = test: Cell cycle arrest in human DLD1 cells assessed as accumulation at G2/M phase at 25 uM; type: functional, cell-based
# DLD-1 [10] = test: Antitumor activity in human DLD1 cells xenografted CD1 immunodeficient nude mouse at 100 mg/kg after 24 hrs assessed as decrease in functional vasculature; set-up: scale not given: the % may be the effect or the level left
# DLD-1 [11] = test: Antitumor activity against human DLD1 cells after 96 hrs; type: functional, cell-based; conditions: DLD-1, 96 h
# DLD-1 [12] = test: Antitumor activity against human DLD1 cells after 1 hr by MTT assay; type: functional, cell-based; conditions: DLD-1, 1 h
# HUVEC [13] = test: as §1; type: functional, cell-based; conditions: Homo sapiens; remark: listed apart in the source
# DLD-1 [14] = test: Antitumor activity in human DLD1 cells xenografted CD1 immunodeficient nude mouse after 24 hrs assessed as increase in tumor necrosis; type: functional
# DLD-1 [15] = test: Antitumor activity in human DLD1 cell xenografted CD1 immunodeficient nude mouse assessed as mean tumor doubling time; type: functional
# HUVEC [16] = test: Disruption of normal microtubule structure in HUVEC cells at 440 nM; type: functional, cell-based; conditions: Homo sapiens
# DLD-1 [17] = test: Antitumor activity in human DLD1 cell xenografted CD1 immunodeficient nude mouse assessed as weight loss; type: functional
# DLD-1 [18] = test: Antitumor activity in human DLD1 cells xenografted CD1 immunodeficient nude mouse after 24 hrs assessed as decrease in functional vasculature; set-up: scale not given: the % may be the effect or the level left
# DLD-1 [19] = test: Disruption of normal microtubule structure in human DLD1 cells at 440 nM; type: functional, cell-based
SMILES,Activity (HUVEC [1]),Activity (DLD-1 [2]),Activity (DLD-1 [3]),Activity (DLD-1 [4]),Activity (DLD-1 [5]),Activity (DLD-1 [6]),Activity (DLD-1 [7]),Activity (HUVEC [8]),Activity (DLD-1 [9]),Activity (DLD-1 [10]),IC50 (DLD-1 [11]),IC50 (DLD-1 [12]),Activity (HUVEC [13]),Activity (DLD-1 [14]),Activity (DLD-1 [15]),Activity (HUVEC [16]),Activity (DLD-1 [17]),Activity (DLD-1 [18]),Activity (DLD-1 [19])
O=C1N[C@H]2[C@@H]3OP(=O)([O-])O[C@@H]3[C@@H](O)[C@H](O)[C@@H]2c2cc3c(c(O)c21)OCO3.[Na+],inactive,15.1 days,95.3%,Active,Active,Active,8.8%,inactive,inactive,0.6%,19.7 µM,253 µM,inactive,–,–,–,–,–,–
CC(=O)O[C@H]1C(=O)[C@@]2(C)[C@H]([C@H](OC(=O)c3ccccc3)[C@]3(O)C[C@H](OC(=O)[C@H](O)[C@@H](NC(=O)c4ccccc4)c4ccccc4)C(C)=C1C3(C)C)[C@]1(OC(C)=O)CO[C@@H]1C[C@@H]2O [PACLITAXEL],–,–,–,–,–,–,–,–,–,–,–,–,–,8.1%,6.2 days,Active,0.5%,6.5%,Active
